# Patent publication US20240344136A1, “RESPONSE TO EGFR BLOCKADE” (The Johns Hopkins University, priority 2015, published 2024)
# Key:
# [1] = tested on: CRC104 tumorgraft with EGFR 465G>E mutation; test: Tumor growth in tumorgraft cohort CRC104; type: in vivo, NOD/SCID mice; details: CRC104, EGFR 465G>E; n=6 for each arm; p<0.01, two-way ANOVA
# [2] = tested on: cetuximab-resistant tumors with 492S>R alterations in EGFR; details: EGFR 492S>R, previous reports (32); cited from earlier work
# [3] = tested on: CRC343 tumorgraft with MAP2K1 57K>N substitution; test: Tumor growth in tumorgraft cohort CRC343; type: in vivo, NOD/SCID mice; details: CRC343, MAP2K1 57K>N; combination p<0.01, two-way ANOVA
# [4] = tested on: CRC477 tumorgraft with FGFR1 amplification; test: Tumor growth in tumorgraft cohort CRC477; type: in vivo, NOD/SCID mice; details: 6 mice per cohort, combination p<0.01, two-way ANOVA
molecule,measurement,setting,value
panitumumab,Tumor growth,[1],poorly sensitive
same,Sensitivity of tumors to therapy,[2],sensitive
Cn1cnc2c(F)c(Nc3ccc(Br)cc3Cl)c(C(=O)NOCCO)cc21 [AZD6244],Tumor growth,[3],unproductive
"CCN1CCN(c2ccc(Nc3cc(N(C)C(=O)Nc4c(Cl)c(OC)cc(OC)c4Cl)ncn3)cc2)CC1 [BGJ398, 3-(2,6-dichloro-3,5-dimethoxy-phenyl)-1-{6-[4-(4-ethyl-piperazin-1-yl)-phenylamino]-pyrimidin-4-yl}-1-methyl-urea]",Tumor growth,[4],resistant
